According to patent US7166706B2 (priority 2001, dated 2007):
Where two headings read alike, the source gives them in different places.

What was measured:
[1] = tested on: Magnaporthe grisea strain P1.2; assay type: cell-based; details: for mean percentage of growth of the M. grisea fungus: 5th day, control = 100%
yeast reductoisomerase [2] = biological target: T1, yeast reductoisomerase (Saccharomyces cerevisiae, UniProt P06168); assay: Stoichiometry of binding of the inhibitors to the yeast reductoisomerase; assay type: biochemical; details: for stoichiometry of binding of the inhibitor to the yeast reductoisomerase: 0.1 nmol inhibitor completely inhibits 0.1 nmol enzyme; for type of inhibition (reversibility): yeast reductoisomerase
Protocol: FIGS. 6A and 6B: Stoichiometry for binding of the inhibitors dimethylphosphinoyl-2-hydroxyacetate and N-hydroxy-N-isopropyloxamate to the yeast reductoisomerase. The inhibitors Hoe 704 [A] and IpOHA [B] (0.1 nmol) are incubated with varying amounts of enzyme (0 to 0.4 nmol) for 20 minutes at 25° C. with 25 nmol of NADPH and 0.25 μmol of Mg^2+ in a volume of 10 μl. The enzyme activity measurements are carried out at 25° C. in 1 ml of the following reaction medium: 10 mM MgCl2, 250 μM NADPH, 0.48 mM AHB, and in 50 mM sodium Hepes buffer, pH 7.5.
The kinetic parameters for the yeast reductoisomerase were determined by following the evolution of the enzyme reaction in the spectrophotometer under saturating conditions with respect to magnesium, to NADPH and to AHB or AL substrate. All the enzyme activity measurements were carried out in a quartz cuvette with an optical path of 1 cm, containing sodium Hepes buffer (50 mM, pH 7.5), 10 mM MgCl2, 250 μM NADPH, in a final volume of 1 ml, at 25° C. The enzyme reaction was initiated by adding 0.48 mM of AHB or of AL. The evolution of this reaction was followed by virtue of the decrease in absorption of NADPH at 340 nm.
The study of the stoichiometry of binding of the inhibitors N-hydroxy-N-isopropyl-oxamate and dimethylphosphinoyl-2-hydroxyacetate was carried out by incubating varying amounts of enzyme (from 0.1 to 0.4 nmol) with a constant amount of inhibitor for 20 minutes, with 25 nmol of NADPH and 0.25 μmol of MgCl2, in a final volume of 10 μl. The reactions are initiated by adding 0.48 mM AHB in 50 mM sodium Hepes buffer, pH 7.5, containing 10 mM MgCl2.
In the presence of 0.1 nmol of dimethylphosphinoyl-2-hydroxyacetate, an enzyme activity is detected only with amounts of enzyme greater than […]. Similarly, in the presence of 0.1 nmol of N-hydroxy-N-isopropyloxamate, an enzyme activity is detected only for amounts of enzyme greater than 0.1 nmol (FIG. 6). In addition, for these two inhibitors, when the enzyme is in excess relative to the inhibitor in the reaction medium, the enzyme activities increase in parallel with those of the control without inhibitor. […] In fact, in the case of irreversible inhibition, in the presence of a low amount of enzyme, all the enzyme complexes with the inhibitor. The enzyme activity is then zero, since there is no longer any free enzyme in the reaction medium. When the amount of enzyme present in the reaction medium is greater than the amount of inhibitor, the free enzyme in excess in the medium then behaves like the control without inhibitor (straight line parallel to the control).

yeast reductoisomerase [3] = biological target: T1, yeast reductoisomerase; assay: Kinetics of inhibition of the yeast reductoisomerase (NADPH absorbance at 340 nm); assay type: biochemical; details: for mechanism of inhibition with respect to the AHB substrate: 1/m3 linear in AHB concentration, enzyme 110 nM; for k0, inhibitor/enzyme association constant: yeast reductoisomerase 110 nM, 25° C., pH 7.5, AHB varied
Protocol: (§1) FIGS. 7A and 7B: Kinetics of inhibition of the yeast reductoisomerase in the presence of the inhibitors dimethylphosphinoyl-2-hydroxyacetate [A] and N-hydroxy-N-isopropyloxamate [B]. The enzyme activity measurements are carried out at 25° C. in 1 ml of the following reaction medium: 10 mM MgCl2, 250 μM NADPH, 0.48 mM AHB in 50 mM sodium Hepes buffer, pH 7.5, and in the presence of enzyme 110 nM.
The reactions are initiated by simultaneously adding varying amounts of inhibitors dimethylphosphinoyl-2-hydroxyacetate [A] and N-hydroxy-N-isopropyloxamate [B] (from 2 μM to 30 μM) to the reaction medium. The curves are plotted according to the equation (1), which makes it possible to determine the values for Kobs, the apparent rate of formation of the enzyme-inhibitor complex.
as §1, with “FIGS. 8A and 8B:” for “FIGS. 7A and 7B:”, “8A and 8B: Kinetics of” for “7A and 7B: Kinetics of”, “of enzyme at 110 nM.” for “of enzyme 110 nM.”
The reactions are initiated by simultaneously adding varying amounts of inhibitors [A] and [B] (from 2 μM to 50 μM) to the reaction medium.
FIGS. 9A and 9B: Determination of the association constant k0 for the dimethylphosphinoyl-2-hydroxyacetate [A] and for the N-hydroxy-N-isopropyloxamate [B] on the yeast reductoisomerase using the representation 1/Kobs as a function of the concentration of substrate AHB. The enzyme activity measurements are carried out at 25° C. in 1 ml of the following reaction medium: 10 mM MgCl2, 250 μM NADPH, from 125 μM to 2.375 mM AHB, and in 50 mM sodium Hepes buffer, pH 7.5, and in the presence of enzyme at 110 nM. The reactions are initiated by simultaneously adding varying amounts of substrate AHB (from 125 μM to 2.375 mM) and the inhibitors [A] (10 μM) and [B] (15 μM) to the reaction medium.
The curves are plotted according to the equation (3), which makes it possible to determine the values for k0, the rate of association of the inhibitor with the enzyme.
The effect of the inhibitors N-hydroxy-N-isopropyloxamate and dimethylphosphinoyl-2-hydroxyacetate on the yeast reductoisomerase was followed over time by measuring the decrease in absorbence of NADPH at 340 nm, in a spectrophotometer. […]
Equation (1): OD340=m1+(m2−m1).e^(−m3.t) where the parameters are as follows: • OD340 is the optical density measured on a spectrophotometer at 340 nm at time “t” • m1 the optical density when “t” tends toward infinity • m2 the initial optical density • m3 the product of the concentration of inhibitor multiplied by the apparent disappearance constant for NADPH. […]

plant reductoisomerase = plant reductoisomerase (Spinacia oleracea, UniProt Q01292); details: cited from earlier work
M. grisea spores = assay type: cell-based, Magnaporthe grisea
Botrytis cinerea = assay type: cell-based
Pythium ultimum = assay type: cell-based
Ustilago nuda = assay type: cell-based
[4] = tested on: Mycosphaerella graminicola; assay type: cell-based
[5] = tested on: all the sensitive fungal species; assay type: cell-based
[6] = Magnaporthe grisea, liquid minimum medium (Table 5; text gives concentrations in μM)

T1 sequence (P06168 48-395): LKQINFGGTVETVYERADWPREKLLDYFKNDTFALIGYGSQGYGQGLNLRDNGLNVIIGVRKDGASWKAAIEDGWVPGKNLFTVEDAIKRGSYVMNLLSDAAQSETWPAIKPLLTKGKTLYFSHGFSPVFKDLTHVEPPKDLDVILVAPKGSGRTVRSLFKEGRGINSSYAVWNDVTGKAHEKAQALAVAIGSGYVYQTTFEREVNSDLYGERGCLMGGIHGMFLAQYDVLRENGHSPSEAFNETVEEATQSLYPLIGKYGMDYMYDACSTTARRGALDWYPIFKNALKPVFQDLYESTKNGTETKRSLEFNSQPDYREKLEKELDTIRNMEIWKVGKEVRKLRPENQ
plant reductoisomerase, sequence (Q01292 73-595): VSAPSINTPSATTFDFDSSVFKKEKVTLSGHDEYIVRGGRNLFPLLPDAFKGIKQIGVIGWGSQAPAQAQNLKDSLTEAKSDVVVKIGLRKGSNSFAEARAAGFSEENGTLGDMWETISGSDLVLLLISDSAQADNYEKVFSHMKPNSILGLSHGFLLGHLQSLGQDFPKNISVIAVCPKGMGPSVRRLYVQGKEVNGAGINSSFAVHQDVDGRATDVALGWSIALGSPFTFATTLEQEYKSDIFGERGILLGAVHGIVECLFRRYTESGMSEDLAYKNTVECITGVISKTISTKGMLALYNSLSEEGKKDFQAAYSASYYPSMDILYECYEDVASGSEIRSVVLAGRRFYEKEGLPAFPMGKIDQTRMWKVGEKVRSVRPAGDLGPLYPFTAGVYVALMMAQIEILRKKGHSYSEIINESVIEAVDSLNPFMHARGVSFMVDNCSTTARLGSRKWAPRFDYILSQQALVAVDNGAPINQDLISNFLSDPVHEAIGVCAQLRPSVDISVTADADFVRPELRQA

In the case of `CP(C)(=O)C(O)C(=O)O` (centres unmarked) [dimethylphosphinoyl-2-hydroxyacetate], the “decrease in growth compared to control without inhibitor” value ([1]; inhibitor at 2 mM, MM medium, 6th and 7th day of growth) is reported as 50%, the “stoichiometry of binding of the inhibitor to the yeast reductoisomerase” value (yeast reductoisomerase [2]) is reported as 1 mol of inhibitor per mole of enzyme and the “type of inhibition (reversibility)” value (yeast reductoisomerase [2]) is reported as “irreversible inhibitors”. The “mechanism of inhibition with respect to the AHB substrate” value (yeast reductoisomerase [3]) was “competitive”, the “k0, inhibitor/enzyme association constant” value (yeast reductoisomerase [3]) was 7721 M⁻¹ s⁻¹ and the “k0, inhibitor/enzyme association constant” value (plant reductoisomerase) was 22 000 M^−1.s^−1.

For `CC(C)N(O)C(=O)C(=O)O` [N-hydroxy-N-isopropyloxamate], the “mean percentage of growth of the M. grisea fungus” value (“mean percentage” below) ([1]; 0.03 μM inhibitor, MM + leucine, valine, isoleucine 0.3 mM (MM + ILV)) was 77.5%, the “mean percentage” value ([1]; 0.03 μM inhibitor, minimum medium (MM)) was 92% and the “mean percentage” value ([1]; 0.1 μM inhibitor, MM + ILV 0.3 mM) was 83.5%. The “mean percentage” value ([1]; 0.1 μM inhibitor, minimum medium (MM)) was 89%, the “mean percentage” value ([1]; 0.3 μM inhibitor, MM + ILV 0.3 mM) was 81% and the “mean percentage” value ([1]; 0.3 μM inhibitor, minimum medium (MM)) was 72%. The “mean percentage” value ([1]; 1 μM inhibitor, MM + ILV 0.3 mM) was 72.5%, the “mean percentage” value ([1]; 1 μM inhibitor, minimum medium (MM)) was 56% and the “mean percentage” value ([1]; 3 μM inhibitor, MM + ILV 0.3 mM) was 71.5%. The “mean percentage” value ([1]; 3 μM inhibitor, minimum medium (MM)) was 13%, the “toxicity on growth when minimum medium is supplemented with valine, leucine and isoleucine” value ([1]; ILV at 0.3 mM, whatever the inhibitor concentration) was “lifted” and the “Level of sensitivity to IpOHA” value ([1]; Magnaporthe grisea) was “Sensitive”. The “ID50: concentration which inhibits fungal growth by 50%” value [1, 6] was 1, the “ID80: concentration which inhibits fungal growth by 80%” value [1, 6] was 3 and the “inhibition of fungal growth” value ([1]; inhibitor 0.3 to 1 μM, MM medium, from the 3rd day) was “approximately 50%”. For the same molecule, the “ID80 (concentration of inhibitor such that the inhibition in fungal growth is 80%)” value ([1]; minimum medium, 5th day of growth) was 1000 nM, the “concentration from which inhibition of growth is observed” value ([1]; minimum medium, from the 3rd day of growth) was no less than 0.3 µM and the spore germination (M. grisea spores; 10 mM, in water or in minimum medium, at 24 and 72 hours) was “does not inhibit”. The spore germination (M. grisea spores; 1 and 3 μM, minimum medium, days 0 and 2) was “not blocked”, the “Level of sensitivity to IpOHA” value (Botrytis cinerea) was “Resistant” and the “effect on growth at the highest concentration used” value (Botrytis cinerea) was “not affected”. For the same molecule, the “ID50: concentration which inhibits fungal growth by 50%” value (Pythium ultimum) was 10, the “ID80: concentration which inhibits fungal growth by 80%” value (Pythium ultimum) was 30 and the “Level of sensitivity to IpOHA” value (Pythium ultimum) was “Moderately sensitive”. For the same molecule, the “concentration from which growth is inhibited” value (Pythium ultimum) was no less than 10 µM, the “ID50: concentration which inhibits fungal growth by 50%” value (Ustilago nuda) was 3 and the “ID80: concentration which inhibits fungal growth by 80%” value (Ustilago nuda) was 30. The “IpOHA concentrations for which inhibition is lifted by isoleucine, leucine and valine” value (Ustilago nuda) was “less than 30 μM”, the “Level of sensitivity to IpOHA” value (Ustilago nuda) was “Moderately sensitive” and the “concentration from which growth is inhibited” value (Ustilago nuda) was no less than 10 µM. The “ID50: concentration which inhibits fungal growth by 50%” value [4] was 1, the “ID80: concentration which inhibits fungal growth by 80%” value [4] was 3 and the “Level of sensitivity to IpOHA” value [4] was “Sensitive”. For the same molecule, the “concentration from which growth is inhibited” value [4] was no less than 0.3 µM, the “stoichiometry of binding of the inhibitor to the yeast reductoisomerase” value (yeast reductoisomerase [2]) was 1 mol of inhibitor per mole of enzyme and the “amount of enzyme above which an enzyme activity is detected” value (yeast reductoisomerase [2]; 0.1 nmol inhibitor, 20 min preincubation with NADPH and Mg2+) was “greater than 0.1 nmol”. The “type of inhibition (reversibility)” value (yeast reductoisomerase [2]) was “irreversible inhibitors”, the “mechanism of inhibition with respect to the AHB substrate” value (yeast reductoisomerase [3]) was “competitive” and the “k0, inhibitor/enzyme association constant” value (yeast reductoisomerase [3]) was 12 433 M^−1.s^−1. The “toxicity when minimum medium is supplemented with isoleucine, leucine and valine” value [5] was “lifted” and the “k0, inhibitor/enzyme association constant” value (plant reductoisomerase) was 1900 M⁻¹ s⁻¹.
